{"source": "patent US6924288B2", "about": "“Enantiomerically pure opioid diarylmethylpiperzine and methods of using same” (priority 2001, dated 2005)", "key": {"μ opioid receptor": {"target": "T1, μ opioid receptor (Rattus norvegicus, UniProt P33535)", "T1 construct": "tissue Pel-Freeze Biological Inc. (Rogers, Ark.); host or cells: rat whole brain membranes", "assay": "Radioligand binding, [3H]DAMGO competition, rat brain membranes", "method": "(§1) Two stereoisomerically related racemic mixtures and inclusive enantiomers were evaluated for in vitro opioid receptor affinity in rat brain membranes (μ and δ opioid) and guinea pig cerebellum (κ opioid receptor). Membranes for radioligand binding were prepared from either rat whole brain or guinea pig cerebellum, supplied by Pel-Freeze Biological Inc. (Rogers, Ark.). Tissues were homogenized in 50 mM TRIS (Tris[hydrooxymethyl]aminomethane) buffer (pH 7.4) containing 50 ug/ml soybean trypsin inhibitor, 1 mM EDTA (Ethylenediaminetetraacetic acid), and 100 μM PMSF (Phenylmethylsulfonyl fluoride). The homogenized brain tissues were centrifuged at 500×g for 30 minutes (4° C.) to remove large debris. The supernatant was polytronically sonicated for 10 seconds (P.E. setting of 2, 4° C.). Sucrose solution was then added to a final concentration of 0.35 M using a 10 mM TRIS-Sucrose buffer (pH 7.4) and the brain membranes were then centrifuged at 40,000×g for 30 minutes (4° C.). The membrane pellets were then washed twice in 10 mM TRIS buffer (pH 7.4) containing 50 μg/ml soybean trypsin inhibitor, 1 mM EDTA, and 100 μM PMSF.\n(§2) Radioligand binding assays were performed in 10 mM TRIS buffer (pH 7.4) containing 50 μg/ml soybean trypsin inhibitor, 1 mM EDTA, 5 mM MgCl2, and 100 μM PMSF. Tritium-labeled DAMGO (μ), Deltorphin II (δ), or U69593 (κ) purchased from New England Nuclear were used as ligands in competitive experiments (2-3×10^−10 M final concentrations) with non-specific binding defined by 0.5×10^−6 M Naloxone (purchased from SIGMA Chemical Co.). All binding assays were run at room temperature for 90 minutes and then terminated by rapid filtration on GF/C glass fiber filters (Whatman, Hillsboro, Oreg.) with 50 mM TRIS buffer (4° C., pH 7.4) employing a Brandel Semi-automatic Cell Harvester (Model M48, Brandel, Gaithersburg, Md.). The filters were washed twice with 50 mM TRIS buffer (4° C., pH 7.4) and the filters were placed in liquid scintillation cocktail and the bound radioactivity counted on a Beckman LS 6500 scintillation counter. The potency of the compounds in inhibiting the binding of radiolabelled DAMGO (μ), Deltorphin II (δ), or U69593 (κ) was determined from full concentration-effect curves. With the computer program Prism (GraphPad Software Inc., San Diego, Calif.) the IC50 values were determined using a one-site nonlinear regression analysis of the radioligand binding data. The IC50 values were then converted to Ki values using the Cheng-Prusoff equation. (Cheng Y and Prusoff W H (1973) Relationship between the inhibition constant (K1) and the concentration of inhibitor which causes 50 percent inhibition (I50) of a enzymatic reaction. Biochem Pharm 22:3099-3108.)"}, "δ opioid receptor": {"target": "T2, δ opioid receptor (Rattus norvegicus, UniProt P33533)", "T2 construct": "tissue Pel-Freeze Biological Inc. (Rogers, Ark.); host or cells: rat whole brain membranes", "assay": "Radioligand binding, [3H]Deltorphin II competition, rat brain membranes", "settings": "read-out: Rat Brain Membrane K1 (nM) δ", "method": "as §1, §2"}, "rats": {"test_system": "rats", "assay": "Respiratory depression by blood gas (pCO2) monitoring in rats", "format": "in vivo", "settings": "rat; for Respiratory Depression % Units Baseline pCO2: 0.30 mg/kg i.v.", "method": "(§3) Analgesia was assayed in rats using the tail pinch test with simultaneous monitoring of capillary blood gases (pCO2). During this testing period respiratory depression values were also obtained. Male rats (Wistar Hannover 200-300 g) were anesthetized with 2% isoflurane (J. A. Webster, Inc., Sterling, Mass. The femoral artery was cannulated with PE50 tubing for blood sampling. The external jugular vein was also cannulated with Silastic tubing for drug injection. After surgery, anesthetic gases were removed and the rat was allowed to rest in a plastic restrainer for 60 minutes to establish baseline values of blood gases.\n(§4) The compounds 1-6 were administered intravenous. Nociceptive response and respiratory values were obtained for a 1-2 hour period. The femoral artery cannulation was used to draw arterial blood into a syringe pre-wetted with heparin. Samples were then analyzed with a blood gas analyzer (Ph/Gas Analyzer Synthesis 25 Model, Instrumentation Laboratory) to assess respiratory depression effects. The volume of blood taken each time was 0.15 cc. The syringes were capped immediately and the blood gases analyzed within 5 minutes. The blood exposed to air at the tip of the syringe was expelled. The blood was mixed by gentle inversion and an aliquots of 0.10 cc was injected into the blood gas analyzer.\n(§5) The gas analyzer was well maintained and operated. Calibrations (low, normal and high) were done at the beginning of every day of testing. The sample lines, co-oximeter and the blood gas electrode were cleaned regularly at the end of every day of testing. Hematocrit calibration (high and low) was scheduled on a weekly basis and tubing, sample and pinch valve were replaced on a monthly basis.\n(§6) The ED50 values for analgesia potency and respiratory depression were determined to calculate the safety or therapeutic ratio, which is defined as the respiratory depression ED50 divided by analgesia ED50."}, "[1]": {"assay": "Respiratory depression by blood gas (pCO2) monitoring in rats", "format": "in vivo", "settings": "male, Wistar Hannover, in vivo; rat, intravenous", "method": "as §3, §4, §5, §6"}, "[2]": {"target": "T3, Mu receptor, mouse vas deferens (Mus musculus, UniProt P42866)", "T3 construct": "Mouse vasa deferentia (MVD), CD-1 strain, Harlan, Raleigh, N.C.) were removed from mice; tissue Harlan, Raleigh, N.C; (animals); host or cells: mouse vas deferens, CD-1 strain", "assay": "Mouse vas deferens, inhibition of electrically induced contractions, mu (with TIPP and nor-BNI)", "format": "cell-based", "settings": "in presence of 3 μM TIPP and 15 nM nor-BNI; read-out: Mouse Vas Deferens ED50 (nM) μ"}, "beagle dogs": {"test_system": "beagle dogs", "assay": "Emesis observation in beagle dogs, escalating i.v. doses", "format": "in vivo, dog", "settings": "i.v. slow bolus, 0.1, 0.3 and 0.5 mg/kg", "text": "The following describes a procedure that provided observations on the emesis effects of (−)-3-((S)-((2S,5R)-4-allyl-2,5-dimethyl-1-piperazinyl)(3-thienyl)methyl)phenol (DPI-125). Three adult male beagle dogs were separately administered (−)-3-((S)-((2S,5R)-4-allyl-2,5-dimethyl-1-piperazinyl)(3-thienyl)methyl)phenol (DPI-125) in escalating dosages. Doses were chosen to produce blood levels consistent with strong to extreme analgesia and that would produce obvious pharmacological effects including lethargy and sedation. The compound was dissolved in sterile 5% dextrose solution that was buffered with acetic acid/sodium acetate buffer and administered intravenously in a slow bolus injection over 1-2 minutes. Firstly, the three dogs were administered test volume dosages of buffered 5% dextrose to ensure there was no reaction to the vehicle. Secondly, (−)3-((S)-((2S,5R)-4-allyl-2,5-dimethyl-1-piperazinyl)(3-thienyl)methyl)phenol (DPI-125) was administered in single injections at escalating dosages of 0.1, 0.3 and 0.5 mg/kg, with an intervening seven-day period before giving the next highest dose."}, "κ opioid receptor": {"target": "T4, κ opioid receptor (Cavia porcellus, UniProt P41144)", "T4 construct": "tissue Pel-Freeze Biological Inc. (Rogers, Ark.); host or cells: guinea pig cerebellum membranes", "assay": "Radioligand binding, [3H]U69593 competition, guinea pig cerebellum membranes", "settings": "read-out: Guinea Pig Brain Membrane K1 (nM) κ", "method": "as §1, §2"}}}
{"compound": "C=CCN1C[C@H](C)N([C@H](c2ccsc2)c2cccc(O)c2)C[C@H]1C", "note": "[Compound 2, (−)3-((S)-((2S,5R)-4-allyl-2,5-dimethyl-1-piperazinyl)(3-thienyl)methyl)phenol]", "values": [{"measurement": "K1 relative to the K1 of its enantiomer DPI-165", "setting": "μ opioid receptor; mu and delta receptor binding", "value": "approximately 1/1000"}, {"measurement": "Ki", "setting": "μ opioid receptor; rat brain membranes, [3H]DAMGO, read-out: Rat Brain Membrane K1 (nM) μ", "value": 0.4, "unit": "nM"}, {"measurement": "Ki", "setting": "δ opioid receptor", "value": 0.88, "unit": "nM"}, {"measurement": "Respiratory Depression % Units Baseline pCO2", "setting": "rats; 4 min.", "value": 48, "unit": "%"}, {"measurement": "Respiratory Depression % Units Baseline pCO2", "setting": "rats; 8 min.", "value": 34, "unit": "%"}, {"measurement": "Respiratory Depression % Units Baseline pCO2", "setting": "rats; 32 min.", "value": 17, "unit": "%"}, {"measurement": "Mortality due to respiratory depression", "setting": "rats; i.v.", "value": "without lethal respiratory depression"}, {"measurement": "Safety Ratio (respiratory depression ED50 divided by analgesia ED50)", "setting": "rats; intravenous", "value": 15.7}, {"measurement": "Safety ratio, times greater than any of the other enantiomeric compounds tested", "setting": "rats; intravenous", "value": "at least six times greater"}, {"measurement": "Safety ratio, times greater than either of the racemic mixtures", "setting": "rats; intravenous", "value": "≥ 3", "unit": "times"}, {"measurement": "ED50", "setting": "[1]", "value": 0.72, "unit": "mg/kg"}, {"measurement": "EC50", "setting": "[2]", "value": 38.8, "unit": "nM"}, {"measurement": "Retching or vomiting (emesis)", "setting": "beagle dogs", "value": "No retching or vomiting was observed"}, {"measurement": "Ki", "setting": "κ opioid receptor", "value": 1.77, "unit": "nM"}]}
